Data on ten compounds can be found in US8026235B1, “Pyridyl benzoxazine derivatives, pharmaceutical composition comprising the same, and use thereof” (Daewoong Pharmaceutical Co., Ltd., priority 2010, dated 2011).

The test system of data set [1] is PBQ-induced writhing in ICR male mice. In words: Phenyl-p-quinone (PBQ)-induced writhing experiment using mice (effect on pain). It is filed as in vivo. The conditions noted are these: oral, PBQ (0.02%) i.p. after 1 hour; for I.A. (inhibitory activity), % inhibition rate class: writhing counted for 10 min. The procedure:
In order to evaluate the effect on pain of the compounds prepared in the Examples 1 to 9, behaviors such as twisting or writhing of body resulted from pain were verified by the phenyl-p-quinone (PBQ)-induced writhing experiment using mice.
5 week-old ICR male mice were used as experimental animals and PBQ (0.02%), as a chemical stimulator. The suspensions of 20 mg of the compounds of the present invention and an excipient such as Na-CMC (sodium carboxymethyl cellulose) in 10 mL of saline were used as test compounds. The test compounds were orally administered to the mice and after 1 hour, PBQ was intraperitoneally administrated in an amount of 10 mL per kg of body weight. The writhing number of each mouse was measured for 10 min starting from 5 min after the administration, and the analgesic effect was verified by counting the reduced number compared to the control group administered with only excipient and calculating the % inhibitory rate according to the following Formula 2. Also, equivalent amounts of SB-705498 were administered as a reference compound for the comparison of the effect on pain between SB-705498 and the compounds of the present invention. % inhibition rate=(writhing # of control group−writhing # of test group)/writhing # of control group×100 [Formula 2]
The inhibitory activity was evaluated from the obtained % inhibition rate, according to the following parameters.
(An intraperitoneal irritant provokes the stretching counted in writhing tests.)

For data set [2], the system named is SD rats (Sprague-Dawley rats). Briefly: Assay for body temperature change (rectal temperature) in SD rats. In kind it is in vivo. The conditions noted are these: single oral administration, rectal temperature up to 8 hr. The procedure:
With the knowledge that some TRPV1 antagonists show the side effect of increasing the body temperature (Gavva et al., 2008, Pain, 136, 202-210), changes in body temperature associated with the compounds prepared in the Examples of the present invention were assessed.
7-week-old SD rats (Sprague-Dawley rats) were employed for this evaluation. Each of the compounds of the Examples was orally administered once at a dose of 10 ml/kg by compulsion. Before administration, the compounds were suspended, together with the excipient Na-CMC (sodium carboxymethyl cellulose), in saline 10 mL. Rectal temperatures of the rats were measured 1 hr and immediately (0 hr) prior to administration, and at the 30 min, 1 hr, 2 hr, 4 hr, 6 hr and 8 hr marks after administration using a thermometer (Shibaura Electronic Corporation, TD-300). The data were expressed as mean values ±S.E.M. Statistical data was analyzed by one way ANOVA, and statistical significance was analyzed in comparison with the excipient-treated control using Dunnett's t-test. Meanwhile, N-(4-(6-(4-(trifluoromethyl)phenyl)[…])benzo[d]thiazol-2-yl)acetamide (hereinafter referred to as “AMG-517”) was used at a dose of 3 mg/kg, as a positive control.

Data set [3] concerns the target T1, human vanilloid-1 (TRPV1) (Homo sapiens, UniProt Q8NER1).
T1 construct: expressed in transfected cells; host or cells: HEK293 Tet-on (hVR-1-HEK293), expression induced with doxycycline
Briefly: Inhibitory effect on capsaicin-stimulated calcium influx via a vanilloid receptor in hVR-1-HEK293 cells (Fluo-3/AM). In kind it is cell-based. The conditions noted are these: 1 μM capsaicin. An excerpt: In order to confirm the antagonistic activities of the inventive compounds, inhibitory effects of the compounds on calcium influx were examined as follows.
hVR-1-HEK293 cell line is a human embryonic kidney (HEK) cell 293 Tet-on strain transformed with a human vanilloid-1 gene (pTRE2hyg-hVR-1 7.8 kb). The cell line can modulate the expression of TRPV1, depending on whether doxycycline, a derivative of tetracycline, is present or not.
In order to elucidate the inhibitory effect on calcium influx, the expression of TRPV1 was induced by culturing hVR-1-HEK293 cell line in a medium containing doxycycline for 2 days.
Specifically, hVR-1-HEK293 cells were cultured in a T75 flask to about 80% confluency, separated from the flask by treating with trypsin solution, and then collected by centrifugation. The cells were suspended in a medium containing 1 μg/mL of doxycycline, and the resulting suspension was diluted to a concentration of 2˜4×10^5 cells/mL 100 μL of the cell suspension was placed in each well of a 96-well black plate. The cells were cultured in 5% CO2 incubator at 37° C. for 2 days, and used for the following procedure.
The compounds, prepared in the Examples 1 to 9 of the present invention, were dissolved in dimethyl sulfoxide (DMSO) to obtain compound samples.
The cells prepared in 1) above were cultured at 37° C. for 90 min in a solution containing Fluo-3/AM, a fluorescent dye, as a calcium indicator so that the fluorescent dye was permeated into the cells. Then the cells were washed three times with D-PBS (Dulbecco's phosphate buffered saline) containing 10 mM HEPES (4-(2-hydroxyethyl)-1-piperazine ethanesulfonic acid) to remove the residual fluorescent dye. 193 μL of D-PBS was added to each well, followed by addition of various concentrations (0.015˜2000 nM) of the compounds. In order to stimulate calcium influx through a vanilloid receptor, the cells were treated with 1 μM of capsaicin. The inhibitory effect of various concentrations (0.015˜2000 nM) of compounds on intracellular calcium influx was measured by using a fluorimeter. Equivalent amounts of (R)-1-(2-bromophenyl)-3-(1-(5-(trifluoromethyl)pyridin-2-yl)pyrrolidin-3-yl)urea (also, referred to SB-705498) was used as a control group. The obtained data were input to the Hill equation represented by the following formula I and the values were analyzed: Intracellular calcium influx=(florescent intensity of experimental group−florescent intensity of background)/(florescent intensity of positive control−florescent intensity of background)×100 [Formula 1]
The inhibitory activities were evaluated from the obtained intracellular calcium influx values according to the following criteria.

Setting [4] is: compounds 0.015˜2000 nM, read-out: I.A. (inhibitory activity), IC50 class.

Like-named read-outs stand apart in the source and are kept apart here. Where only a bound is given, the exact number is not on record here.

T1 sequence (Q8NER1 whole entry): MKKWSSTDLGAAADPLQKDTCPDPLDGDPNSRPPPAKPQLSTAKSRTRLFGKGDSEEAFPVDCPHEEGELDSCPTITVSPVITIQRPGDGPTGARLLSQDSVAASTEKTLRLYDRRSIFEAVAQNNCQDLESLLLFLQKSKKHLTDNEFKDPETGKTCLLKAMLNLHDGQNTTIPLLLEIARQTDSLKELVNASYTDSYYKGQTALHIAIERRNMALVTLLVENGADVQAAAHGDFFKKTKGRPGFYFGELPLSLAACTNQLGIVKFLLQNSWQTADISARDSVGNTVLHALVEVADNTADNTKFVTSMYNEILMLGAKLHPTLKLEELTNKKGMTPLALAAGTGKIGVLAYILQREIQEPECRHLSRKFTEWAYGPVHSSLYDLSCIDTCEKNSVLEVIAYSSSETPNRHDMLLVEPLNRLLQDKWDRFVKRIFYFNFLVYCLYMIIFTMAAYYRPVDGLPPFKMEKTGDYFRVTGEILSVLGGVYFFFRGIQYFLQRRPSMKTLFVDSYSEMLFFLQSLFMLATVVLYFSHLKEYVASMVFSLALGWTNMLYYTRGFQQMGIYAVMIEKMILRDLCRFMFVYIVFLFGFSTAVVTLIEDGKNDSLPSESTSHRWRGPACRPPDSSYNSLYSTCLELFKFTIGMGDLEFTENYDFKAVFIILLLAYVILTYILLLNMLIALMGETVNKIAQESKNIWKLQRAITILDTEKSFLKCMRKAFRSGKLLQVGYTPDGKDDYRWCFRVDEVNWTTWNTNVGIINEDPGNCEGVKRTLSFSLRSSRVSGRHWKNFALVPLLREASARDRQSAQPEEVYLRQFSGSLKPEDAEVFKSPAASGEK

By IC50 is commonly meant the midpoint of a concentration-inhibition curve. With `COc1ccc(N2c3cccc(-c4nc5ccc(OC(F)(F)F)cc5[nH]4)c3OC[C@@H]2CO)nc1` [Example 4, (S)-(4-(5-methoxypyridin-2-yl)-8-(6-(trifluoromethoxy)-1H-benzo[d]imidazol-2-yl)-3,4-dihydro-2H-benzo[b][1,4]oxazin-3-yl)methanol], the “I.A. (inhibitory activity), % inhibition rate class” value in data set [1] was “++ (20˜50%)”. In addition, the “Change in Body Temp.” value in data set [2] is “+/− (±<0.5° C.)”. Also, in data set [3] (setting [4]), the IC50 fell in the range of 20 to 100 nM.
On the same counts, the results for `COc1ccc(N2CCOc3c(-c4nc5ccc(C(C)(C)C)cc5[nH]4)cccc32)nc1` [Example 1, 8-(6-tert-Butyl-1H-benzo[d]imidazol-2-yl)-4-(5-methoxypyridin-2-yl)-3,4-dihydro-2H-benzo[b][1,4]oxazine] are “++ (20˜50%)”, “+/− (±<0.5° C.)” and 101 to 500 nM.
On the same counts, the results for `COc1ccc(N2c3cccc(-c4nc5cc(F)c(Cl)cc5[nH]4)c3OC[C@@H]2CO)nc1` [Example 6, (S)-(8-(6-chloro-5-fluoro-1H-benzo[d]imidazol-2-yl)-4-(5-methoxypyridin-2-yl)-3,4-dihydro-2H-benzo[b][1,4]oxazin-3-yl)methanol] are “+++ (51-80%)”, “+/− (±<0.5° C.)” and 20 to 100 nM.
On the same counts, the results for `COc1ccc(N2c3cccc(-c4nc5cc(Cl)c(Cl)cc5[nH]4)c3OC[C@@H]2CO)nc1` [Example 3, (S)-(8-(5,6-dichloro-1H-benzo[d]imidazol-2-yl)-4-(5-methoxypyridin-2-yl)-3,4-dihydro-2H-benzo[B][1,4]oxazin-3-yl)methanol] are “++ (20˜50%)”, “+/− (±<0.5° C.)” and 20 to 100 nM.
As for `COc1ccc(N2c3cccc(-c4nc5ccc(C(F)(F)F)cc5[nH]4)c3OC[C@@H]2CO)nc1` [Example 2, (S)-(4-(5-methoxypyridin-2-yl)-8-(6-(trifluoromethyl)-1H-benzo[d]imidazol-2-yl)-3,4-dihydro-2H-benzo[b][1,4]oxazin-3-yl)methanol], the “I.A. (inhibitory activity), % inhibition rate class” value in data set [1] is listed as “++ (20˜50%)”. Moreover, the “Change in Body Temp.” value in data set [2] is “+ (0.5^~1.0° C.)”. Further, the IC50 in data set [3] (setting [4]) fell in the range of 20 to 100 nM.
On the same counts, the results for `COc1ccc(N2c3cccc(-c4nc5c(Br)cc(OC(F)(F)F)cc5[nH]4)c3OC[C@@H]2CO)nc1` [Example 5, (S)-(8-(4-bromo-6-(trifluoromethoxy)-1H-benzo[d]imidazol-2-yl)-4-(5-methoxypyridin-2-yl)-3,4-dihydro-2H-benzo[B][1,4]oxazin-3-yl)methanol] are “+++ (51-80%)”, “+ (0.5^~1.0° C.)” and less than 20 nM.
As to `COc1ccc(N2c3cccc(-c4nc5c(Br)cc(C(F)(F)F)cc5[nH]4)c3OC[C@@H]2CO)nc1` [Example 7, (S)-(8-(4-bromo-6-(trifluoromethyl)-1H-benzo[d]imidazol-2-yl)-4-(5-methoxypyridin-2-yl)-3,4-dihydro-2H-benzo[b][1,4]oxazin-3-yl)methanol], in data set [1], the “I.A. (inhibitory activity), % inhibition rate class” value is reported as “++ (20˜50%)”. The “Change in Body Temp.” value in data set [2] is “+ (0.5^~1.0° C.)”. Further, the IC50 in data set [3] (setting [4]) fell in the range of 101 to 500 nM.
With `COc1ccc(N2c3cccc(-c4nc5c(Br)cc(Br)cc5[nH]4)c3OC[C@@H]2CO)nc1` [Example 9, (S)-(8-(4,6-dibromo-1H-benzo[d]imidazol-2-yl)-4-(5-methoxypyridin-2-yl)-3,4-dihydro-2H-benzo[b][1,4]oxazin-3-yl)methanol], in data set [1], the “I.A. (inhibitory activity), % inhibition rate class” value was “++ (20˜50%)”. The “Change in Body Temp.” value in data set [2] is “+ (0.5^~1.0° C.)”. For the same compound, the IC50 in data set [3] (setting [4]) lay within 101 to 500 nM.
Consider `COc1ccc(N2c3cccc(-c4nc5c(Cl)cc(C(F)(F)F)cc5[nH]4)c3OC[C@@H]2CO)nc1` [Example 8, (S)-(8-(4-chloro-6-(trifluoromethyl)-1H-benzo[d]imidazol-2-yl)-4-(5-methoxypyridin-2-yl)-3,4-dihydro-2H-benzo[b][1,4]oxazin-3-yl)methanol], for which, in data set [1], the “I.A. (inhibitory activity), % inhibition rate class” value was “+++ (51-80%)”. In addition, the “Change in Body Temp.” value in data set [2] is “+/− (±<0.5° C.)”. In data set [3] (setting [4]), the IC50 lay in the range of 20 to 100 nM.
As to `O=C(Nc1ccccc1Br)N[C@@H]1CCN(c2ccc(C(F)(F)F)cn2)C1` [SB-705498, (R)-1-(2-bromophenyl)-3-(1-(5-(trifluoromethyl)pyridin-2-yl)pyrrolidin-3-yl)urea, reference compound], the “% inhibition rate of writhing” value in data set [1] was less than 20%. The IC50 in data set [3] (read-out: IC50 on calcium influx) was 100 to 150 nM.
